According to ChEMBL document CHEMBL4184185, “Dihydrobenzisoxazole-4-one compounds are novel selective inhibitors of aldosterone synthase (CYP11B2) with in vivo activity” (Bioorg Med Chem Lett, 2018):
Calls of active or inactive are those of the source. The calls are words filed in the database; no cut-off is given here.

Tests used:
[1] = Inhibition of cynomolgus monkey adrenal mitochondrial CYP11B2 using corticosterone as substrate after 60 mins in presence of NADPH by mass spectrometric analysis
[2] = molecular target: T1, Cytochrome P450 11B2, mitochondrial (Homo sapiens, UniProt P19099); experiment: Inhibition of recombinant human CYP11B2 expressed in Chinese hamster V79MZ cells assessed as reduction in aldosterone production at 20 uM by mass spectrometric method; type: cell-based
T1 sequence (P19099 whole entry): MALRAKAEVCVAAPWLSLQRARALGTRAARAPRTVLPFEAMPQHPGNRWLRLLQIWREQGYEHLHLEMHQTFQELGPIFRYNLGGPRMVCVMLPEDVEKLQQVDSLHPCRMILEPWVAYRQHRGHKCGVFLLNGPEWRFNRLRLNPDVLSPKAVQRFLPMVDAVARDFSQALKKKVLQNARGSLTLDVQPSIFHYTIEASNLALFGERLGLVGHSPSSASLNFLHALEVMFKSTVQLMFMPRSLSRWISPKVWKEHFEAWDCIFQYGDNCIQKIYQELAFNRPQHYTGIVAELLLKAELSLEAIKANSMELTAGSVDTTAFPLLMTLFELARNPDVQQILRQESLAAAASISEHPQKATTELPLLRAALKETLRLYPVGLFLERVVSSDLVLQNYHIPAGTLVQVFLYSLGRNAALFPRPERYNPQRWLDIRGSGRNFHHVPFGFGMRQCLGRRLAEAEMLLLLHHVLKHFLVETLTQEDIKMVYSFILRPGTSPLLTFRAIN

[3] = Inhibition of cynomolgus monkey adrenal mitochondrial CYP11B1 using 11-deoxycortisol as substrate after 90 mins in presence of NADPH by mass spectrometric analysis
Macaca fascicularis [4] = species: Macaca fascicularis; experiment: Selectivity index, ratio of IC50 for cynomolgus monkey adrenal mitochondrial CYP11B1 to IC50 for cynomolgus monkey adrenal mitochondrial CYP11B2
[5] = Clearance in human liver microsomes relative to hepatic blood flow; type: ADME, microsome; conditions: read-out: CLH
Aromatase [6] = molecular target: T2, Aromatase (Homo sapiens, UniProt P11511); experiment: Inhibition of CYP19A1 (unknown origin)
T2 sequence (P11511 whole entry): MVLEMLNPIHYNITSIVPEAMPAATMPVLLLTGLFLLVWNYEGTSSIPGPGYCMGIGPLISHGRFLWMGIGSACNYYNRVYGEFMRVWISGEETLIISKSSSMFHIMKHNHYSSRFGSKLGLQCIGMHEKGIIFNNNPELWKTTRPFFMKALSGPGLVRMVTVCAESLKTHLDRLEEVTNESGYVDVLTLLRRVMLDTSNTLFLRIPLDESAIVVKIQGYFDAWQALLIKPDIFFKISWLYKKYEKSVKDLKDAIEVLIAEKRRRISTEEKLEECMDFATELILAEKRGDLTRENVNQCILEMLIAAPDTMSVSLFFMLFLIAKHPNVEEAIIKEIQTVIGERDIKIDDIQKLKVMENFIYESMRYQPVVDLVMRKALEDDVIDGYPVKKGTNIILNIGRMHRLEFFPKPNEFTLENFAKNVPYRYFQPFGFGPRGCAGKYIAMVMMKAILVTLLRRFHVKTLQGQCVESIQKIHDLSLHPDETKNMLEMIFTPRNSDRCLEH

[7] = molecular target: T3, Steroid 17-alpha-hydroxylase/17,20 lyase (Homo sapiens, UniProt P05093); experiment: Inhibition of CYP17A1 (unknown origin); type: ADME
T3 sequence (P05093 whole entry): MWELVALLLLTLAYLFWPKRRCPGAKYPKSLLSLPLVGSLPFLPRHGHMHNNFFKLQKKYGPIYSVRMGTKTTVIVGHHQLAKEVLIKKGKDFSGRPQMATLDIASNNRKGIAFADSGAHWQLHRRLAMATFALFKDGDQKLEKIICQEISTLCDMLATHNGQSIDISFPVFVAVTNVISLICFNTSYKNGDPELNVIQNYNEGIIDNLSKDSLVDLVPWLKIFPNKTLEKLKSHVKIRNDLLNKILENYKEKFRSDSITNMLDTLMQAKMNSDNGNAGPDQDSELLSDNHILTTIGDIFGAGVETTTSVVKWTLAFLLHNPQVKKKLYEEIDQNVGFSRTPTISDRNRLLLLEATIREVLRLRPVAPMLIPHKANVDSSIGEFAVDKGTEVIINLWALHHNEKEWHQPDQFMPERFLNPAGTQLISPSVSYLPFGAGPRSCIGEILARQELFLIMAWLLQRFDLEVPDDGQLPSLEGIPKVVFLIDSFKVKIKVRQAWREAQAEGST

Cytochrome P450 3A4 = Cytochrome P450 3A4 (Homo sapiens, UniProt P08684); experiment: Inhibition of CYP3A4 (unknown origin) at 30 uM; type: ADME
Cytochrome P450 3A4, sequence (P08684 whole entry): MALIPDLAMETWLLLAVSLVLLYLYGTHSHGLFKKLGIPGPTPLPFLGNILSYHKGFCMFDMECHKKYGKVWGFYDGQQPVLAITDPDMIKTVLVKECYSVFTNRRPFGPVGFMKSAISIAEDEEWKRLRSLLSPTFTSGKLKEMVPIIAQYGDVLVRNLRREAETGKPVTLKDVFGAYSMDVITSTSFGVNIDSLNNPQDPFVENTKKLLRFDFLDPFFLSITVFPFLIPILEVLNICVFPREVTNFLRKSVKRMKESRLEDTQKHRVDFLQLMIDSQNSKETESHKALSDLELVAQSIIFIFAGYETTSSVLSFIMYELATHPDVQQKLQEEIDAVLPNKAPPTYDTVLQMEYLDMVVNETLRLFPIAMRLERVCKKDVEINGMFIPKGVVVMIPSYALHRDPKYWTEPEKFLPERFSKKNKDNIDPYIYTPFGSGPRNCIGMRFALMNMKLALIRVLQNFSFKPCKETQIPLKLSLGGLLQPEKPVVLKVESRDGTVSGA

[8] = Clearance in human hepatocytes relative to hepatic blood flow; type: ADME, cell-based, Hepatocyte; conditions: read-out: CLH
Cytochrome P450 2C9 = Cytochrome P450 2C9 (Homo sapiens, UniProt P11712); experiment: Inhibition of CYP2C9 (unknown origin) at 30 uM; type: ADME
Cytochrome P450 2C9, sequence (P11712 whole entry): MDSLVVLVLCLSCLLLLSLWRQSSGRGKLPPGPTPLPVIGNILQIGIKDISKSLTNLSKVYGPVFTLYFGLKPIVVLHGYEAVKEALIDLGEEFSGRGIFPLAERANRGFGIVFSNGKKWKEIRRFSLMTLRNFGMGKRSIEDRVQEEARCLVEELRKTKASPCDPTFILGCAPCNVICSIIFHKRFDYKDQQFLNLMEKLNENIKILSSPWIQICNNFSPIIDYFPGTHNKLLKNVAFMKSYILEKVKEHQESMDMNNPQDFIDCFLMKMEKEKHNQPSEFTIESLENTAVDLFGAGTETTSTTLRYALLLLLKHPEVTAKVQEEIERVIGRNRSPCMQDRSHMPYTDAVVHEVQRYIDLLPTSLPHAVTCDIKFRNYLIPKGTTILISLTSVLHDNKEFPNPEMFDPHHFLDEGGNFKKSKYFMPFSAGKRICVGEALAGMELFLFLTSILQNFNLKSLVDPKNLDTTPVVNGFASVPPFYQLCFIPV

Cytochrome P450 2D6 = Cytochrome P450 2D6 (Homo sapiens, UniProt P10635); experiment: Inhibition of CYP2D6 (unknown origin) at 30 uM; type: ADME
Cytochrome P450 2D6, sequence (P10635 whole entry): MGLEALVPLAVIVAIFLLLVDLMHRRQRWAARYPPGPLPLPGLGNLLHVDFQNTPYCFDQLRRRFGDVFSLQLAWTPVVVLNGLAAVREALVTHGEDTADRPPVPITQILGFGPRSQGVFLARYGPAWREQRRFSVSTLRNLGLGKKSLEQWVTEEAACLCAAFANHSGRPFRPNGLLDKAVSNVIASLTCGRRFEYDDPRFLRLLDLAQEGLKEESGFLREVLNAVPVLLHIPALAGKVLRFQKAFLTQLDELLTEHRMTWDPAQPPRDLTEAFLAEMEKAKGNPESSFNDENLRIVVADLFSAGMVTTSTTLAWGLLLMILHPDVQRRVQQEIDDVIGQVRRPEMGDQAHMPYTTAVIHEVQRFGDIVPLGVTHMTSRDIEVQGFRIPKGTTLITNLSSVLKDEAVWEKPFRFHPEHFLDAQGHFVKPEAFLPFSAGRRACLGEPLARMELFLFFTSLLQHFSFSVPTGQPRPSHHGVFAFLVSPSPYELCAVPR

Aromatase [9] = molecular target: T2, Aromatase; experiment: Inhibition of CYP19A1 (unknown origin) at 20 uM
Macaca fascicularis [10] = species: Macaca fascicularis; experiment: Inhibition of cynomolgus monkey adrenal mitochondrial CYP11B2 at 1 uM using corticosterone as substrate after 60 mins in presence of NADPH by mass spectrometric analysis
[11] = Clearance in Beagle dog hepatocytes relative to hepatic blood flow; type: ADME, cell-based, Canis lupus familiaris, Hepatocyte; conditions: read-out: CLH
[12] = Clearance in Wistar Han rat hepatocytes relative to hepatic blood flow; type: ADME, cell-based, Hepatocyte; conditions: read-out: CLH
Canis familiaris = experiment: Clearance in iv dosed Beagle dog relative to hepatic blood flow; type: ADME, organism-based, Canis lupus familiaris; conditions: in vivo
[13] = Clearance in cynomolgus monkey hepatocytes relative to hepatic blood flow; type: ADME, cell-based, Macaca fascicularis, Hepatocyte; conditions: read-out: CLH
[14] = Oral bioavailability in Beagle dog; type: ADME, organism-based, Canis lupus familiaris; conditions: in vivo
[15] = Oral bioavailability in Wistar Han rat; type: ADME, organism-based; conditions: in vivo
[16] = Drug metabolism in human hepatocytes assessed as parent compound remaining at 10 uM after 30 mins by LC-MS/MS analysis; type: ADME, cell-based, Hepatocyte; conditions: read-out: Stability
Rattus norvegicus = experiment: Clearance in iv dosed Wistar Han rat relative to hepatic blood flow; type: ADME, organism-based; conditions: in vivo
Cynomolgus monkey = experiment: Clearance in iv dosed cynomolgus monkey relative to hepatic blood flow; type: ADME, organism-based, Macaca fascicularis; conditions: in vivo
[17] = molecular target: T1, Cytochrome P450 11B2, mitochondrial; experiment: Inhibition of recombinant human CYP11B2 expressed in Chinese hamster V79MZ cells assessed as reduction in aldosterone production at 1 uM by mass spectrometric method; type: cell-based
[18] = molecular target: T1, Cytochrome P450 11B2, mitochondrial; experiment: Inhibition of recombinant human CYP11B2 expressed in Chinese hamster V79MZ cells assessed as reduction in aldosterone production by mass spectrometric method; type: cell-based
[19] = molecular target: T3, Steroid 17-alpha-hydroxylase/17,20 lyase; experiment: Inhibition of CYP17A1 (unknown origin) at 20 uM; type: ADME

## Clc1ccc(-n2ccnc2)cc1Cl
[1]
  pIC50: 7.2
[2]
  inhibition (INH): Not Active

## N#Cc1ccc(Cc2onc3c2C(=O)CC(C2CC2)C3)cc1 (centres undefined)
[3]
  pIC50: 5.6
Macaca fascicularis [4]
  Ratio IC50: 15
[5]
  hepatic extraction ratio: 0.83
[1]
  pIC50: 6.8

## CN1C(=O)CCc2cc(-c3cccnc3)ccc21
[3]
  pIC50: 6
Aromatase [6]
  IC50: 0.1 µM
[7]
  IC50: 0.316 µM
Macaca fascicularis [4]
  Ratio IC50: 230
[1]
  pIC50: 8.4

## CN1CCN(C(=O)c2ccc(Cc3onc4c3C(=O)CC(C)(C)C4)cc2)CC1=O
[3]
  pIC50: 5
Aromatase [6]
  IC50: > 31.6 µM
Cytochrome P450 3A4
  inhibition (INH): Not Active
[8]
  hepatic extraction ratio: 0.41
Macaca fascicularis [4]
  Ratio IC50: 64
Cytochrome P450 2C9
  inhibition (INH): Not Active
Cytochrome P450 2D6
  inhibition (INH): Not Active
[5]
  hepatic extraction ratio: < 0.24
[1]
  pIC50: 6.8
Aromatase [9]
  inhibition (INH): Not Active

## CC1(C)Cc2noc(Cc3ccc(F)cc3)c2C(O)C1 (centres undefined)
Macaca fascicularis [10]
  inhibition: inactive

## CC1CC(=O)c2c(noc2Cc2ccccc2)C1 (centres undefined)
[3]
  pIC50: 5.5
Macaca fascicularis [4]
  Ratio IC50: 130
[5]
  hepatic extraction ratio: 0.73
[1]
  pIC50: 7.6

## CC1(C)CC(=O)c2c(noc2-c2ccccc2)C1
[3]
  pIC50: 4.3
[7]
  IC50: > 31.6 µM
Macaca fascicularis [4]
  Ratio IC50: < 53
[5]
  hepatic extraction ratio: 0.85
[1]
  pIC50: < 6

## CC1CC(=O)c2c(noc2Cc2ccc(C#N)cc2)C1 (centres undefined)
[3]
  pIC50: 5.1
Macaca fascicularis [4]
  Ratio IC50: 39
[5]
  hepatic extraction ratio: 0.38
[1]
  pIC50: 6.7

## O=C1CCCc2noc(Cc3ccccc3)c21
[3]
  pIC50: 4.6
Macaca fascicularis [4]
  Ratio IC50: 32
[5]
  hepatic extraction ratio: 0.73
[1]
  pIC50: 6.1

## COc1ccc(Cc2onc3c2C(=O)CC(C)(C)C3)cc1
[3]
  pIC50: 5.8
Aromatase [6]
  IC50: > 31.6 µM
[7]
  IC50: > 31.6 µM
Macaca fascicularis [4]
  Ratio IC50: 95
[5]
  hepatic extraction ratio: 0.86
[1]
  pIC50: 7.8

## CC1(C)CC(=O)c2c(noc2Cc2ccc(C(=O)N3CC[C@@H](O)C3)cc2)C1
[3]
  pIC50: 5
[11]
  hepatic extraction ratio: < 0.3
Aromatase [6]
  IC50: > 20 µM
Cytochrome P450 3A4
  inhibition (INH): Not Active
[8]
  hepatic extraction ratio: < 0.24
Macaca fascicularis [4]
  Ratio IC50: 160
[12]
  hepatic extraction ratio: 0.52
Cytochrome P450 2C9
  inhibition (INH): Not Active
Cytochrome P450 2D6
  inhibition (INH): Not Active
Canis familiaris
  CL: 35%
[5]
  hepatic extraction ratio: < 0.24
[1]
  pIC50: 7
[13]
  hepatic extraction ratio: 0.28
[14]
  bioavailability: 85%
Aromatase [9]
  inhibition (INH): Not Active
[15]
  bioavailability: 11%
[16]
  remaining at 0.5 h, 10 µM: 98%
Rattus norvegicus
  CL: 31%
Cynomolgus monkey
  CL: 75%

## CC1(C)CC(=O)C(C(=O)Cc2ccc(F)cc2)=C(N)C1
Macaca fascicularis [10]
  inhibition: inactive

## CC1(C)CC(=O)c2c(n[nH]c2Cc2ccc(C#N)cc2)C1
[1]
  pIC50: < 6
[17]
  inhibition at 1 µM: 54%

## Clc1ccc(-c2ccno2)cc1Cl
[1]
  pIC50: < 4.7
[2]
  inhibition (INH): Not Active

## CC1(C)CC(=O)c2c(noc2Cc2ccc(C(N)=O)cc2)C1
[3]
  pIC50: 4.8
Aromatase [6]
  IC50: > 20 µM
Cytochrome P450 3A4
  inhibition (INH): Not Active
[8]
  hepatic extraction ratio: 0.33
Macaca fascicularis [4]
  Ratio IC50: 150
[12]
  hepatic extraction ratio: 0.6
Cytochrome P450 2C9
  inhibition (INH): Not Active
Cytochrome P450 2D6
  inhibition (INH): Not Active
[5]
  hepatic extraction ratio: 0.33
[1]
  pIC50: 7
[13]
  hepatic extraction ratio: 0.22
Aromatase [9]
  inhibition (INH): Not Active
[15]
  bioavailability: 8%
[16]
  remaining at 0.5 h, 10 µM: 55%
Rattus norvegicus
  CL: 62%
Cynomolgus monkey
  CL: 57%

## N#Cc1ccc([C@H]2CCc3cncn32)c(F)c1 [OSILODROSTAT]
[3]
  pIC50: 7.4
[7]
  IC50: 3.98 µM
[1]
  pIC50: 7.7

## CC1(C)CC(=O)c2c(ncn2Cc2ccccc2)C1
[1]
  pIC50: 7

## Clc1ccc(-c2ccn[nH]2)cc1Cl
[1]
  pIC50: 5.3
[2]
  inhibition (INH): Not Active

## CC1(C)CC(=O)c2c(noc2Cc2ccccc2)C1
[3]
  pIC50: 5.1
[18]
  inhibition (INH): Active
Aromatase [6]
  IC50: > 31.6 µM
Cytochrome P450 3A4
  inhibition (INH): Not Active
[7]
  IC50: > 31.6 µM
Macaca fascicularis [4]
  Ratio IC50: 100
Cytochrome P450 2C9
  inhibition (INH): Not Active
Cytochrome P450 2D6
  inhibition (INH): Not Active
[19]
  inhibition (INH): Not Active
[5]
  hepatic extraction ratio: 0.64
[1]
  IC50: 0.079 µM
  pIC50: 7.1
Aromatase [9]
  inhibition (INH): Not Active

## CC1(C)CC(=O)c2c(noc2Cc2ccc(S(C)(=O)=O)cc2)C1
[3]
  pIC50: 5.4
[8]
  hepatic extraction ratio: 0.59
[7]
  IC50: > 31.6 µM
Macaca fascicularis [4]
  Ratio IC50: 42
[5]
  hepatic extraction ratio: < 0.24
[1]
  pIC50: 7.1

## CC1(C)CCc2c(noc2Cc2ccc(C#N)cc2)C1
[3]
  pIC50: 5.5
Macaca fascicularis [4]
  Ratio IC50: 17
[5]
  hepatic extraction ratio: 0.37
[1]
  pIC50: 6.8

## CC1(C)CC(=O)c2c(noc2Cc2ccc(C#N)cc2)C1
[3]
  pIC50: 4.1
[18]
  inhibition (INH): Active
Macaca fascicularis [4]
  Ratio IC50: 940
[5]
  hepatic extraction ratio: 0.55
[1]
  pIC50: 7.1
